Measured values as given in patent publication US6884575B2, “Phosphoprotein target for insulin and its antagonists” (Protemix Corporation Limited, priority 2001, dated 2005).
Several values for one entry are separate records, joined by “and”; a condition that tells them apart may be missing. Equal entries are not always repeated. Ends that are not written are not given here.

Experiments:
L6 myotubes = assay: 2-deoxyglucose uptake in L6 myotubes; type: cell-based
Description: L6 myoblast cells were transfected with pCXN2-GLUT4myc (27), or co-transfected with pCXN2-GLUT4myc and pcDNA.P20, using Lipofectamine Plus reagent according to the manufacturer's instructions. Stable transfectants were selected in medium containing the neomycin analogue G418 at 400 μg/ml. At 10 days after transfection, the clones were selected using sterilised steel rings and expanded separately in the presence of G418. Clones that express P20 and myc-tagged GLUT4 were chosen by western blotting and used for further experiments.
L6 cells stably overexpressing myc-tagged GLUT4, or myc-tagged GLUT4 plus P20, were grown in 6-well plates and differentiated into myotubes in DMEM containing 2% fetal bovine serum for 7 days. The cells were deprived of serum for 16 h prior to experiments. For glucose uptake assays, L6 myotubes were rinsed three times with Krebs-Henseleit buffer (KHB) and incubated in KHB with or without hormones (insulin or insulin plus amylin) at the indicated concentrations for 15 min at 37° C. Carrier-mediated glucose uptake of 10 μM 2-deoxy-D-[^3H] glucose in the above solution was measured for 15 min at 37° C. This was followed by rinsing the cells three times with ice-cold PBS and cell disruption with 0.1 N NaOH. The associated radioactivity was determined by liquid scintillation counting. The protein concentration was measured with a BCA protein quantitation kit (PIERCE). The nonspecific uptake was determined in the presence of 10 μM cytochalasin B and subtracted from each value.

P20 [1] = assay: Phosphorylation of P20 isoforms in 32P-labelled rat EDL muscle strips (2-DE, phosphorimaging); type: cell-based; details: for radioactivity of P20 isoform S1 / radioactivity of P20 isoform S2 / radioactivity of P20 isoform S3: hormones 50 nM, 30 min, n=4
Description: Rat extensor digitorum longus (EDL) muscle strips were prepared from 18 h-fasted rats. Dissection and isolation of muscles were carried out under anaesthesia with pentobarbital (5-7 mg/100 g of body weight, intraperitoneally) as described previously (23). Each muscle was split into three ˜1 mm width strips. Muscle strips were pre-incubated in a shaking incubator at 30° C. for 1 h in 5 ml of Dulbecco's Modified Eagle's medium without sodium phosphate. All incubation media were gassed with a mixture of 95% O2 and 5% CO2. The muscle strips were subsequently transferred to similar flasks containing identical medium plus 0.25 mCi/ml [^32P]-orthophosphate and incubated for a further 4 h to equilibrate the internal ATP pool (23, 24). Human insulin, rat amylin, epinephrine or CGRP were then added to the incubation media for 30 min at stated final concentrations. Reactions were terminated by freezing muscle strips in liquid nitrogen immediately after incubation. Muscle strips were then weighed and stored at −80° C. until further analysis.
Muscle strips were homogenized in 2-DE lysis buffer (9M urea, 2% v/v triton X-100, 2% v/v pharmalyte pH 3-10, 200 mM DTT, 8 mM PMSF) for 5 min on ice. The lysates were briefly sonicated and microcentrifuged at 12,000 rpm for 10 min to remove debris. Protein concentrations were determined by the Bradford method and radioactivity was measured by liquid scintillation counting. ^32P-labelled lysates with equivalent amounts of radioactivity were isoelectrically focused on IPG Drystrip pH 4-7 and pH 3-10 Linear gels using a multiphor RII electrophoresis system according to the manufacturer's instructions. Second dimensional SDS-PAGE was carried out using ExcelGel™ precast 12-14% acrylamide gradient gels. After electrophoresis the gels were fixed in 10% glacial acetic acid, 40% ethanol and the proteins visualized by phosphorimaging or autoradiography.
Autoradiography films were scanned and digitised using a Sharp JX-325 scanner, and protein spots detected, quantitated and analysed using the Melanie II software package, ver. 2.2 (Biorad). The detection parameters were: smooth 2, Laplacian threshold 3, partials threshold 1, saturation 90, peakedness increase 100 and minimum perimeter 10. The matching of multiple features to one feature was not allowed. The pixel value is the optical density (OD). Features were calculated as a percentage of the sum of VOL (the feature's volume, i.e., the integration of OD over the feature's area) for all features on the gel. The radioactivity of protein spots was also detected by a phosphorimager and analysed by MacBAS v2.5 software. […] All the results presented are based on at least three independent experiments. Statistical analysis was performed using the t-test (paired two sample).

P20 [2] = assay: P20 mRNA (northern blot) and protein (western blot) in EDL muscle; type: cell-based, rat; details: dexamethasone-injected rats or strips with 50 nM amylin 30 min
Description: About 50 μg proteins from liver, heart, epididymal fat pad, aortic smooth muscle, EDL muscle, soleus muscle tissues and whole blood obtained from 18 h-fasted male Wistar rats were separated by SDS-PAGE and subsequently transferred to nitrocellulose membranes. The membranes were blocked over night at 4° C. and then incubated with rabbit anti-P20 polyclonal antibody (1:1000) for 2 h at room temperature. After incubation with streptavidin-biotinylated horseradish peroxidase-conjugated secondary antibody for another 1 h at room temperature, the proteins immunoreactive to the primary antibody were visualised by enhanced chemiluminescence (ECL) detection according to the manufacturer's instructions.
Total cellular RNA was isolated from EDL muscle of 18 h-fasted control and dexamethasone-treated rats using TRIZOL reagent. 15 μg of RNA from each sample was separated by 1.5% agarose-formaldehyde gel electrophoresis and subsequently transferred to Hybond-N^+ nylon membranes by capillary blotting in 20×SSC. The P20 cDNA probe was labelled with ^32P-dCTP using a random primer labelling system. […] Membranes were then washed, analysed using a phosphorimager and quantitated by MacBAS v2.5 software. For comparison, RNA samples from EDL muscle strips treated with or without 50 nM amylin were also analysed in parallel.

Male Wistar rats = type: in vivo, rat
Description: (§1) All experimental protocols were approved by the Institutional Animal Ethics Committee. Male Wistar rats were injected with dexamethasone (3.1 mg/kg/day, intraperitoneally) for 7 days. The daily weights of rats in both control and dexamethasone-treated groups were monitored. […] Rats were fasted for 18 h prior to each experiment and were killed by cervical dislocation. Blood was obtained by cardiac puncture from anesthetized animals. The mean blood glucose concentration was 5.4±0.2 mM and 10.8±0.6 mM in control and dexamethasone-treated rats, respectively, as measured with a YSI 2300STAT glucose/lactate analyser (Yellow Springs Instruments). […] Insulin and amylin concentrations in the blood of normal and insulin resistant rats were determined as described (17). Rats with insulin resistance induced by chronic high fat feeding were generated as described previously (26).

skeletal muscle = assay: In vitro [14C(U)]-D-glucose incorporation assay in skeletal muscle (insulin-stimulated glycogen synthesis); type: cell-based, rat; details: muscle of dexamethasone-treated rats
Description: as §1

[3] = cells overexpressing both P20 and GLUT4myc vs GLUT4myc alone, n=4
[4] = EDL strips from dexamethasone-treated rats, basal = no hormone
[5] = EDL strips from non-diabetic control rats, mean ± SD

For “Amylin: Rat amylin purchased from Bachem; hormone co-secreted with insulin from pancreatic islet β-cells (KCNTATCATQRLANFLVRSSNNLGPVLPPTNVGSNTY; ends and bridges not checked; cysteine pairing not given here; UniProt P12969 38-74, looked up)”, the “decrease of insulin-stimulated glucose uptake” value (L6 myotubes; GLUT4myc alone, 50 nM insulin plus 50 nM amylin) was 28%, the “increase of the inhibitory effect of amylin by P20 overexpression” value (L6 myotubes; [3]) was 24±2% and the “decrease of insulin-induced phosphorylation of S1” value (P20 [1]; 50 nM insulin plus 50 nM amylin vs 50 nM insulin alone, normal rats) was 49%. The “radioactivity of P20 isoform S1” value (P20 [1]; [4]) was 181 PSL, the “radioactivity of P20 isoform S2” value (P20 [1]; [4]) was 280 PSL and the “radioactivity of P20 isoform S3” value (P20 [1]; [4]) was 208 PSL. For the same compound, the “radioactivity of P20 isoform S1” value (P20 [1]; [5]) was 191 ± 9 PSL, the “radioactivity of P20 isoform S2” value (P20 [1]; [5]) was 289 ± 20 PSL and the “radioactivity of P20 isoform S3” value (P20 [1]; [5]) was 226 ± 17 PSL. The “P20 mRNA level and protein abundance” value (P20 [2]) was “not changed”.
In the case of C[C@@H]1C[C@H]2[C@@H]3CCC4=CC(=O)C=C[C@]4(C)[C@@]3(F)[C@@H](O)C[C@]2(C)[C@@]1(O)C(=O)CO [Dexamethasone, dexamethasone], the “mean blood glucose concentration” value (Male Wistar rats; 3.1 mg/kg/day i.p. for 7 days, 18 h fasted) is reported as 10.8 ± 0.6 mM, the “fasted basal plasma concentration of amylin” value (Male Wistar rats; dexamethasone-treated rats) is reported as 144±17 pmol/1 and the “fasted basal plasma concentration of insulin” value (Male Wistar rats; dexamethasone-treated rats) is reported as 789±94 pmol/1. For the same compound, the “reduction in rates of insulin-stimulated glycogen synthesis” value (skeletal muscle) was “over 95%”, the “radioactivity of P20 isoform S1” value (P20 [1]; [4]) was 439 PSL and the “radioactivity of P20 isoform S2” value (P20 [1]; [4]) was 102 PSL. For the same compound, the “radioactivity of P20 isoform S3” value (P20 [1]; [4]) was 98.6 PSL and the “signals of both S2 and S3, fold higher than control rats” value (P20 [1]; without hormone stimulation, dexamethasone 3.1 mg/kg/day i.p. for 7 days) was “about 5 fold”.
In the case of “Insulin: Human insulin was Actrapid from Novo Nordisk”, the “decrease of insulin-stimulated glucose uptake by P20 overexpression” value (L6 myotubes; [3]) is reported as 41±3%, the “increase of 2-deoxyglucose uptake over basal level” value (L6 myotubes; myotubes overexpressing GLUT4myc alone, 50 nM insulin) is reported as 2.94±0.31 fold and the “effect on phosphorylation of S2 and S3 induced by epinephrine and CGRP” value (P20 [1]; 50 nM each, normal rats) is reported as “no effect”. The “decrease of amylin-evoked phosphorylation of S3” value (P20 [1]; 50 nM insulin plus 50 nM amylin vs amylin alone, normal rats) was 73% and ~74%, the “radioactivity of P20 isoform S1” value (P20 [1]; [4]) was 843 PSL and the “radioactivity of P20 isoform S2” value (P20 [1]; [4]) was 96.6 PSL. The “radioactivity of P20 isoform S3” value (P20 [1]; [4]) was 92 PSL, the “radioactivity of P20 isoform S1” value (P20 [1]; [5]) was 831 ± 40 PSL and the “radioactivity of P20 isoform S2” value (P20 [1]; [5]) was 20.3 ± 3.4 PSL. For the same compound, the “radioactivity of P20 isoform S3” value (P20 [1]; [5]) was 13.3 ± 1.3 PSL and the “effect on amylin-evoked phosphorylation of S2 and S3” value (P20 [1]; diabetic (dexamethasone-treated) rats) was “little affected”.
